Results reported in PMC3954497 (Journal of Medicinal Chemistry, 2014).

Key:
NET = NET (Rattus norvegicus, UniProt Q63380); experiment: biochemical; assay type: binding; details: 3 h, read-out: Ki [SE interval] NET
DAT = DAT (Rattus norvegicus, UniProt P23977); assay type: binding; details: for improvement in DAT affinity vs unsubstituted analogue: 4i vs 4g, 6c vs 6a
SERT = SERT (Rattus norvegicus, UniProt P31652); assay type: binding; details: for increase in SERT affinity vs unsubstituted analogue: 4i vs 4g, 6c vs 6a; for displacement at the SERT: rat brain membranes
NCCc1c[nH]c2ccc(O)cc12 = experiment: cells, lysate or membranes; details: pH 7.4; 37.0 °C

Chain of NET (Q63380 1-617): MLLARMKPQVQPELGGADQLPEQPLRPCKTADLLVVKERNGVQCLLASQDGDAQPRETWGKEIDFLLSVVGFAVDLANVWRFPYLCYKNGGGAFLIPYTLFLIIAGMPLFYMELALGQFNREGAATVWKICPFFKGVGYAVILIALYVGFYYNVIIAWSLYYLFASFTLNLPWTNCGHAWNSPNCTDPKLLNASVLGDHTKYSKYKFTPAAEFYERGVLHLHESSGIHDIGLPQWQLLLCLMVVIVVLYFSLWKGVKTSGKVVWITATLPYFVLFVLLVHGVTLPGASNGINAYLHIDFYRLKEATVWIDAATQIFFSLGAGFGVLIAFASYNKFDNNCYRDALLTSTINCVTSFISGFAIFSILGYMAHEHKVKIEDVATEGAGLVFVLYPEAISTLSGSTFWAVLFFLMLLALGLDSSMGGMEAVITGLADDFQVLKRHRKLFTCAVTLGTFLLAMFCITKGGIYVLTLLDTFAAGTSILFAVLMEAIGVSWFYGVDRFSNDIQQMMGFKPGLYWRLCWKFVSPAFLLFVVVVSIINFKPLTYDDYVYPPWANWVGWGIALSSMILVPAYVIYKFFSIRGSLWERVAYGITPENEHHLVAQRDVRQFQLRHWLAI
Chain of SERT (P31652 whole entry): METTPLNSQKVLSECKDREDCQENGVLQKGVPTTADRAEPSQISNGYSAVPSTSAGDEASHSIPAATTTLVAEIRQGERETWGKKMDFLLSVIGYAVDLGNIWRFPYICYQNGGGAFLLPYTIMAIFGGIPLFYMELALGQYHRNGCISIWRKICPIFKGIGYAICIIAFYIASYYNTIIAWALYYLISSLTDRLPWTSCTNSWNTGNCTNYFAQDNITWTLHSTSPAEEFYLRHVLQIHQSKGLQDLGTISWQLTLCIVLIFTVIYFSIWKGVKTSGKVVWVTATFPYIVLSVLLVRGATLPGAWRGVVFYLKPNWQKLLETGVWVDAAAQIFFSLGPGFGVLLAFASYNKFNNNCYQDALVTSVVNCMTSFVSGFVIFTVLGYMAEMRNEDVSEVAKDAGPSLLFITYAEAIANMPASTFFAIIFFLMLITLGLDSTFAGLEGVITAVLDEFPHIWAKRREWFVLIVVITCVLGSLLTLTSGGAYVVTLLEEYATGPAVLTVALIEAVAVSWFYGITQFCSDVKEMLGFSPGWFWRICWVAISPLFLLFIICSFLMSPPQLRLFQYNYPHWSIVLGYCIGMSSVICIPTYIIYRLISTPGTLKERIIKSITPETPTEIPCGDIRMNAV
Chain of DAT (P23977 whole entry): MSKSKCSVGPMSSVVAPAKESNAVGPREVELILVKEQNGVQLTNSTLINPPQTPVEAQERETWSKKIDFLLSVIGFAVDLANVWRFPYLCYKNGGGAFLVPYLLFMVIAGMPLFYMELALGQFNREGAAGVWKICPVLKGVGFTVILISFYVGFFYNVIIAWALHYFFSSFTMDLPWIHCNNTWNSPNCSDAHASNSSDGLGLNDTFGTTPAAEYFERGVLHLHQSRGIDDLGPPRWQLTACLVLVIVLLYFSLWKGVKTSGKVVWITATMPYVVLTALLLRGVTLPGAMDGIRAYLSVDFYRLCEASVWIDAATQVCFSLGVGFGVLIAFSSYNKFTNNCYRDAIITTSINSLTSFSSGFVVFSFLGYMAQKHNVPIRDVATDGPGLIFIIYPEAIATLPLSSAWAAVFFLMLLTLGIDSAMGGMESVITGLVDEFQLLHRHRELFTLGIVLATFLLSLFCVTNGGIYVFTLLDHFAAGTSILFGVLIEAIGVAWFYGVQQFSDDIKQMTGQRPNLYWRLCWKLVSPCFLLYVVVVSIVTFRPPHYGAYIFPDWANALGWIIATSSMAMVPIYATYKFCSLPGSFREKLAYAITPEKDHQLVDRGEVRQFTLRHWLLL

Cc1ccc(C(c2ccc(C)cc2)[S+]([O-])CC(N)=O)cc1 (stereo not drawn) [5a, 2-((Di-p-tolylmethyl)sulfinyl)acetamide]
inhibition (NET): < 50%

O=C(CSC(c1ccccc1)c1ccccc1)NCC1CC1 [4o, 2-(Benzhydrylthio)-N-(cyclopropylmethyl)acetamide]
inhibition (NET): < 50%

CNC(=O)CSC(c1ccc(Br)cc1)c1ccc(Br)cc1 [4i, 2-((Bis(4-bromophenyl)methyl)thio)-N-methylacetamide]
improvement in DAT affinity vs unsubstituted analogue (DAT): 6 fold
increase in SERT affinity vs unsubstituted analogue (SERT): > 50 fold

NC(=O)C[S+]([O-])C(c1cccc(F)c1)c1cccc(F)c1 (stereo not drawn) [5c, 2-((Bis(3-fluorophenyl)methyl)sulfinyl)acetamide]
inhibition (NET): < 50%

NCCSC(c1ccccc1)c1ccccc1 [6a, 2-(Benzhydrylthio)ethan-1-amine]
improved DAT affinity compared to (±)-1 (DAT): about 20 fold

NC(=O)CSC(c1ccccc1)c1ccccc1 [4a, 2-(Benzhydrylthio)acetamide]
inhibition (NET): < 50%

O=C(CSC(c1ccc(Br)cc1)c1ccc(Br)cc1)NCCCCc1ccccc1 [4z, 2-((Bis(4-bromophenyl)methyl)thio)-N-(4-phenylbutyl)acetamide]
displacement at the SERT (SERT): no displacement
inhibition at 100 µM (NET): < 50%

O=C(CSC(c1ccc(Br)cc1)c1ccc(Br)cc1)NCC1CC1 [4q, 2-((Bis(4-bromophenyl)methyl)thio)-N-(cyclopropylmethyl)acetamide]
inhibition (NET): < 50%

O=C(CSC(c1ccc(Cl)cc1)c1ccc(Cl)cc1)NCCCc1ccccc1 [4w, 2-((Bis(4-chlorophenyl)methyl)thio)-N-(3-phenylpropyl)acetamide]
displacement at the SERT (SERT): no displacement
inhibition at 100 µM (NET): < 50%

NCCSC(c1ccc(Br)cc1)c1ccc(Br)cc1 [6c, 2-((Bis(4-bromophenyl)methyl)thio)ethan-1-amine]
improvement in DAT affinity vs unsubstituted analogue (DAT): 3 fold
increase in SERT affinity vs unsubstituted analogue (SERT): 9 fold

hSERT-WT (Homo sapiens)
Km (NCCc1c[nH]c2ccc(O)cc12): 520 [360–760] nM

NC(=O)C[S+]([O-])C(c1cccc(Cl)c1)c1cccc(Cl)c1 (stereo not drawn) [5d, 2-((Bis(3-chlorophenyl)methyl)sulfinyl)acetamide]
inhibition (NET): < 50%

O=C(C[S+]([O-])C(c1ccc(Br)cc1)c1ccc(Br)cc1)NCCCc1ccccc1 (stereo not drawn) [5g, 2-((Bis(4-bromophenyl)methyl)sulfinyl)-N-(3-phenylpropyl)acetamide]
inhibition at 100 µM (NET): < 50%

CCCCNC(=O)CSC(c1ccccc1)c1ccccc1 [4r, 2-(Benzhydrylthio)-N-butylacetamide]
inhibition (NET): < 50%

O=C(CSC(c1ccccc1)c1ccccc1)NCCCc1ccccc1 [4u, 2-(Benzhydrylthio)-N-(3-phenylpropyl)acetamide]
inhibition at 100 µM (NET): < 50%

O=C(CSC(c1ccc(F)cc1)c1ccc(F)cc1)NCCCc1ccccc1 [4v, 2-((Bis(4-fluorophenyl)methyl)thio)-N-(3-phenylpropyl)acetamide]
inhibition at 100 µM (NET): < 50%

CNC(=O)C[S+]([O-])C(c1ccccc1)c1ccccc1 (stereo not drawn) [5f, 2-(Benzhydrylsulfinyl)-N-methylacetamide]
inhibition (NET): < 50%

C=CCNC(=O)CSC(c1ccccc1)c1ccccc1 [4j, N-Allyl-2-(benzhydrylthio)acetamide]
inhibition (NET): < 50%

NC(=O)C[S+]([O-])C(c1ccccc1)c1cccc(Br)c1 (stereo not drawn) [5e, 2-(((3-Bromophenyl)phenylmethyl)sulfinyl)acetamide]
displacement at the SERT (SERT): no displacement
inhibition (NET): < 50%
